In PMC8719450 (Xenobiotica; the fate of foreign compounds in biological …, 2021):
Like-named read-outs stand apart in the source and are kept apart here.

Assays:
[1] = type: in vitro ADME; conditions: human, human liver microsomes (sample HH54), probe flavone (60 µM), formation of diOHFM4 (3´4´diOHF)
[2] = system: sample HH47 liver microsomes; type: in vitro ADME, human; conditions: substrate flavone 60 μM, inhibitor 10 μM
[3] = target: T1, CYP2A6 (Homo sapiens, UniProt P11509); conditions: 20 min, 60 μM
T1 sequence (P11509 1-494): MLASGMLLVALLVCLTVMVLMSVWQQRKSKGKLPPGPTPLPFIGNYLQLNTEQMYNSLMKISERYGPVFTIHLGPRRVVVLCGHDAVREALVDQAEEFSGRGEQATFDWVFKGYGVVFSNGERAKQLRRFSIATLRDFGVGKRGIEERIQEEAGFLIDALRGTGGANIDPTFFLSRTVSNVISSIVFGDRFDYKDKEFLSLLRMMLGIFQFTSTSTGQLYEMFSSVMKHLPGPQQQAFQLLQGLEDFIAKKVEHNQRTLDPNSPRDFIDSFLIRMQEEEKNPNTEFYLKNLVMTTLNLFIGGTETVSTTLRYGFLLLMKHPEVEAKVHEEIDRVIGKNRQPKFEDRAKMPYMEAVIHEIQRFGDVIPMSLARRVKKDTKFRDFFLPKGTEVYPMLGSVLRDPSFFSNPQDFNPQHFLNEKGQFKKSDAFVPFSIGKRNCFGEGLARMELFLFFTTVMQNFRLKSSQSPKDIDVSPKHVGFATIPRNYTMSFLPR

[4] = target: CYP3A4 (Homo sapiens, UniProt P08684); experiment: Oxidation of flavonoids by reconstituted recombinant P450, LC-MS/MS; type: in vitro ADME
Chain of CYP3A4 (P08684 whole entry): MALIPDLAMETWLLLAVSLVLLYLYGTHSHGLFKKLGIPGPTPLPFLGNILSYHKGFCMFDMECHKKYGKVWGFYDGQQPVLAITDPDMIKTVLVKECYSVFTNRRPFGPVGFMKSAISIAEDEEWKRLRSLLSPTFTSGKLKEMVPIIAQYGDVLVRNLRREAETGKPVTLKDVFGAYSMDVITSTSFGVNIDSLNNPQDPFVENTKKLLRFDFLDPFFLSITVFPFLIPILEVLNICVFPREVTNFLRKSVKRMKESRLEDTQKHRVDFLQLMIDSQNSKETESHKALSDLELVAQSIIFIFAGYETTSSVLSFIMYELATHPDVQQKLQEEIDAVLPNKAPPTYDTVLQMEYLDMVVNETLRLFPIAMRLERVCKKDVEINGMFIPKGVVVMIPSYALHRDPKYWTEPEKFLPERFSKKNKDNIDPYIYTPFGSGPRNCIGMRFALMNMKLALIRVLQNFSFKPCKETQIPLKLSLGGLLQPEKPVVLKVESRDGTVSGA

[5] = target: T2, CYP2B6 (Homo sapiens, UniProt P20813); type: in vitro ADME
T2 sequence (P20813 1-491): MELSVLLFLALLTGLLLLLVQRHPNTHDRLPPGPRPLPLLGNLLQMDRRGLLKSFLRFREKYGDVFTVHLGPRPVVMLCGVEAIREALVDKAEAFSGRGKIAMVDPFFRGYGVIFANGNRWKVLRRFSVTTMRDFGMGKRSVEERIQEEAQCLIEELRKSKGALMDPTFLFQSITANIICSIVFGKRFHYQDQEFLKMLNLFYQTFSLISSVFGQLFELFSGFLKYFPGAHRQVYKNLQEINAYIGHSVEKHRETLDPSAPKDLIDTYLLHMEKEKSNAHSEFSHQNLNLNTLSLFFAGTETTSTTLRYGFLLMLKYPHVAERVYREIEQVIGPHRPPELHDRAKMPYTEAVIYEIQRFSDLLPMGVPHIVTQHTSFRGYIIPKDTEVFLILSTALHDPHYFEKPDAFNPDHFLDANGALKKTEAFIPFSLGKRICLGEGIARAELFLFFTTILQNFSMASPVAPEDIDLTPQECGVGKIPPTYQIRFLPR

[6] = system: liver microsomes of human sample HH2; experiment: Oxidation of flavonoids by human liver microsomes, sample HH2; type: in vitro ADME
[7] = target: T1, CYP2A6; experiment: Oxidation of flavonoids by reconstituted recombinant P450, LC-MS/MS
[8] = target: CYP2C9 (Homo sapiens, UniProt P11712); experiment: as above; type: in vitro ADME
Chain of CYP2C9 (P11712 whole entry): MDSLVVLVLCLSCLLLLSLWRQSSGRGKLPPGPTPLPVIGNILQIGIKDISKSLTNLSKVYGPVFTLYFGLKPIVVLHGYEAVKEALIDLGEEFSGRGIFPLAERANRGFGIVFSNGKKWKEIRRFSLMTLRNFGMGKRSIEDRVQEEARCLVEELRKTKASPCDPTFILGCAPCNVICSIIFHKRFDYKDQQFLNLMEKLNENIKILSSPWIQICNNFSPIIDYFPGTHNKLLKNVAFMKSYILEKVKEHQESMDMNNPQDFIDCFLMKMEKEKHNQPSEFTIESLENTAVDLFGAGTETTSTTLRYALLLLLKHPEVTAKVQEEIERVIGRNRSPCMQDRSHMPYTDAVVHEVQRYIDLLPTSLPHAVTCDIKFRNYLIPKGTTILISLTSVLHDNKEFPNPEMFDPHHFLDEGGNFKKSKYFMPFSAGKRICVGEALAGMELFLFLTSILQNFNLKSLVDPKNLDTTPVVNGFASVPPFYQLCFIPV

[9] = rats, oral or intraperitoneal administration; ref Das and Griffiths (1966); cited from earlier work
[10] = guinea pigs, oral 30 mg of flavone, ref Das and Griffiths (1966), cited from earlier work

For O=c1cc(-c2ccccc2)oc2c1ccc1ccccc12 [ANF, α-naphthoflavone], the inhibition at 20 min [1] was 65% and the “inhibition of formation of OHFM5, OHFM7, 6OHF, and OHFM12” value [2] was “inhibited”.

For COc1ccc(-c2cc(=O)c3ccccc3o2)cc1 [4´MeF, 4´-methoxyflavone], the “rate of O-demethylation to form M2 (4´OHF)” value [3] was 0.029 min⁻¹ and the “rate of formation of M1 (3´4´diOHF)” value [3] was 0.0004 min^1.

With O=c1cc(-c2ccccc2)oc2ccccc12 [flavone] the “activity in oxidizing flavone” value [4] was “not very active”, the “activity in oxidizing flavone” value [5] was “not very active” and the “production of OHFM6, OHFM9, and diOHFM4” value [6] was “very little”. For the same molecule, the “activity in oxidizing to OHFM6 (4´OHF) and OHFM9 (3´OHF)” value [7] was “highly active”, the “activity in oxidizing flavone” value [8] was “not very active” and the “3´4´diOHF found in urine” value [9] was “small amounts”. For the same molecule, the “urinary excretion of 4´OHF” value ([10]; first day) was 622 µg, the “urinary excretion of 4´OHF” value ([10]; fourth day) was 0 µg and the “urinary excretion of 4´OHF” value ([10]; second day) was 309 µg. For the same molecule, the “urinary excretion of 4´OHF” value ([10]; third day) was 15 µg.

In the case of O=c1ccc2ccccc2o1 [coumarin], the inhibition at 20 min [1] is reported as 75% and the “inhibition of formation of OHFM6 and OHFM9” value [2] is reported as “strongly inhibited”.
